# Assay results reported in publication PMC10622513, “A fluorogenic, peptide-based probe for the detection of Cathepsin D in macrophages” (Communications Chemistry, 2023).
# “Also recorded” adds a separate entry of the source.
# Key:
# [1] = cited from earlier work
# Excerpt: The new probe designed here was FRET-based, with a BODIPY fluorophore at the N-terminus, while the C-terminal Gln was replaced with a Lys residue functionalised with a quencher (Methyl Red, λmax 500 nm)[20].
# [2] = test system: CatD activity in human monocyte-derived macrophages (MDM); experiment: Confocal imaging of CatD activity in monocyte-derived macrophages; format: cell-based; conditions: Pepstatin A 20 μM, S. pneumoniae MOI 10:1, CatD-P3 10 μM
# Protocol: Confocal fluorescence microscopy (λex 488, λem 512 nm) images of the detection of CatD activity in monocyte-derived macrophages. […] Mock infected macrophages (no bacteria) were used as a control (left panel). […] At 10 h the cells were washed, fixed in 2% paraformaldehyde and cell nuclei were counter-stained with DAPI (λex 405, λem 461 nm).
# Human MDM were matured in 24-well Corning tissue culture plates over 14 days from Peripheral Blood Mononuclear cells obtained healthy volunteers by informed written consent, under ethical approval 21-EMREC-041. Following maturation, the MDM were removed from wells by treatment with Accutase (BioLegend) and re-seeded onto iBidi 8-well chamber slides. […] Following fixation, cells were washed again with 3 × PBS, with DAPI (0.1 µg/mL) added in the 2nd PBS wash for 10 min.
# In these experiments, macrophages were incubated for 6 h in the presence or absence (Mock)
# (20 μM) was added aoer 4 h. At 10 h the cells were washed, ﬁxed in 2% paraformaldehyde and cell nuclei
# were counter-stained with DAPI (λex 405, λem 461 nm).
# [3] = parameters: method as in PMID 29876538; conditions: acids such as TFA or HCl; cited from earlier work
# Excerpt: The Methyl Red (MR) quencher was incorporated by coupling Fmoc-Lys(MR)-OH[20] onto a Rink-amide functionalised polystyrene resin (0.7 mmol/g), followed by the substrate sequence, using DIC and Oxyma as the coupling combination. The use of Fmoc-Lys(MR)-OH as a building block avoided the need for orthogonal deprotection on the resin[27],[28]. A bis-ethylene glycol spacer was introduced as the last amino acid before the fluorophore to increase hydrophilicity and promote aqueous solubility of the probe. The BODIPY (1,3,5,7-tetramethyl-8-phenyl-4,4-difluoroboradiazaindacene) fluorophore chosen as p ...
# human cathepsin D = conditions: cited from earlier work
# Excerpt: Herein, we report the design and synthesis of a fluorogenic probe, based on a specific substrate for CatD, which provides an OFF→ON signal upon activation with good signal amplification. […] When choosing a substrate to build an optical probe to be used in cells and potentially in vivo, control of cross-reactivities is vital and it is important to design a specific substrate that is not ...
molecule,measurement,setting,value
CC1=CC(C)=[N+]2C1=C(c1ccc(C(=O)ON3C(=O)CCC3=O)cc1)c1c(C)cc(C)n1[B-]2(F)F [compound 2],fluorescence quantum yield Φ,[1],0.6
same,pH sensitivity of fluorescence,[1],pH insensitive
Pepstatin A,effect of Pepstatin A on CatD-P3 fluorescence in infected macrophages,[2],a decrease in the fluorescence signal; also recorded: prevented CatD-P3 activation resulting in reduced/no green fluorescence; also recorded: marked decrease in fluorescent signal
"CC1=CC(C)=[N+]2C1=C(c1ccccc1)c1c(C)cc(C)n1[B-]2(F)F [BODIPY, 1,3,5,7-tetramethyl-8-phenyl-4,4-difluoroboradiazaindacene]",stability to acids,[3],not stable to acids
"Ala-Ile-Ala-Phe↑Phe-Ser-Arg-Gln [kallistatin, natural CatD substrate kallistatin, from which Pimenta et al. derived the substrate]",Km,human cathepsin D,0.27 µM
same,kcat,human cathepsin D,16.25 s⁻¹
